Measurements as given in BigSolDB 2.1.

O=c1ccc2ccccc2o1
solubility (mole fraction)
Settings	278.15 K	283.15 K	288.15 K	293.15 K	298.15 K	303.15 K	308.15 K	313.15 K	318.15 K
in cyclohexane	–	0.00162	0.00236	0.00321	0.00428	0.00607	0.00824	0.0111	0.0144
in ethanol	0.0071	0.011	0.0205	0.0331	0.0533	0.0869	0.138	0.222	0.357
in isopropanol	0.00371	0.00604	0.0108	0.0204	0.0351	0.0604	0.101	0.171	0.282
in methanol	0.012	0.0182	0.0303	0.05	0.0802	0.122	0.199	0.32	0.484
in n-hexane	0.000862	0.00118	0.00169	0.0024	0.00319	0.00421	0.00574	0.00746	0.00962
in n-propanol	0.00521	0.00952	0.0172	0.0282	0.0469	0.0781	0.124	0.202	0.33
